Results on one compound are retold here after article PMC9673926, “Nucleotide binding as an allosteric regulatory mechanism for Akkermansia muciniphila β-N-acetylhexosaminidase Am2136” (Gut Microbes, 2022).

Molecules are shown by their SMILES. Where a chain is given by its changes, count along the chain named.

What all share (experiment): Nucleotide binding affinity by intrinsic fluorescence, mutant
Set-up in all cases: The coding region (residue Q20-L756) of Am2136 without signal peptide was based on UniProt; 6XHis (N); made in house; host or cells: E. coli BL21 (DE3)

One test deals with T1, Am2136 E649A (Akkermansia muciniphila, UniProt B2UPR7, E649A).
T1 sequence (B2UPR7 20-756 E649A): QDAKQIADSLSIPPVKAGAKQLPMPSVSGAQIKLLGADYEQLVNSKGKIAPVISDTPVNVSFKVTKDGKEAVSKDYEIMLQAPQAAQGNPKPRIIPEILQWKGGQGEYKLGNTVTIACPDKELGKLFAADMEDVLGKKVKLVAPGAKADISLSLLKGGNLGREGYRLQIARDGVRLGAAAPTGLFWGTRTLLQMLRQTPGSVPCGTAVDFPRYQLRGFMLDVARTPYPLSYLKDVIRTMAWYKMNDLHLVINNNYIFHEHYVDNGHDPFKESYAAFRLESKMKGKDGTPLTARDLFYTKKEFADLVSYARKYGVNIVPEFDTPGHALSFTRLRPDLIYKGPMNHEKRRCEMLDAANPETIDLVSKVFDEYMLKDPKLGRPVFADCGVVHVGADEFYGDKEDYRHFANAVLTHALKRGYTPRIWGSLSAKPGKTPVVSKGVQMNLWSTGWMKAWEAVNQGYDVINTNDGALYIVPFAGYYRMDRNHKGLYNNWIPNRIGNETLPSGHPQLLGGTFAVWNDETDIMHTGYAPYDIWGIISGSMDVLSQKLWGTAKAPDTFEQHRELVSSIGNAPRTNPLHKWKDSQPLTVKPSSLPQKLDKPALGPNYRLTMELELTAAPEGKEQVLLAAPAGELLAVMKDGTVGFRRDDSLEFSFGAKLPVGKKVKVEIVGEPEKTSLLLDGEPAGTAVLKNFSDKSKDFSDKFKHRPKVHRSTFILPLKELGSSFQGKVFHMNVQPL
The procedure:
(§1) The nucleotide binding ability was determined on Fluorescence Spectrometer Duetta (HORIBA) by measuring the change of peak intensity. The fluorescence was excited at 286 nm and emitted at 336 nm. And the measurement was processed under 400 V voltage with 2.5 nm excitation slit and 5 nm emission slit. The 120 μL reaction mixture contains 0–550 μM nucleotide, 5 μM proteins, 25 mM Tris pH 8.0 and 150 mM NaCl. The sample was incubated at 4°C for 5 min before testing.

A further test concerns the target T2, Am2136 Y327F+Y331F (Akkermansia muciniphila, UniProt B2UPR7, Y327F/Y331F).
T2 sequence (B2UPR7 20-756 Y327F/Y331F): T1 sequence (B2UPR7 20-756 E649A) with Y308F, Y312F, A630E
On the procedure: as §1

A further test concerns the target T3, Am2136 R256A (Akkermansia muciniphila, UniProt B2UPR7, R256A).
T3 sequence (B2UPR7 20-756 R256A): T1 sequence (B2UPR7 20-756 E649A) with R237A, A630E
On the procedure:
as §1

Take `Nc1nc2c(ncn2[C@@H]2O[C@H](COP(=O)(O)OP(=O)(O)O)[C@@H](O)[C@H]2O)c(=O)[nH]1` [GDP]: the figures for the Kd on Am2136 E649A, on Am2136 Y327F+Y331F and at Am2136 R256A were 236 µM, 175 ± 13.7 µM and 158 ± 10.9 µM, respectively.
